Format in all cases: cell-based
For assay [1], the system named is IL-2 production in Jurkat cell (ATCC). The assay is described as follows: Jurkat IL-2 Production Assay. Particulars: Homo sapiens, Jurkat cells, 18-20 h incubation, serum/stimulant variant (1% FBS/PHA or 30% FBS/PMA+ionomycin) not given. Here is the method:
Jurkat IL-2 Production Assay Cell: Jurkat cell (ATCC) was grown in RPMI 1640 with 10% FBS and 1% penicillin/streptomycin. The cell density was kept at 1.2˜1.8×10^6/mL in culture flask before seeding into culture plate, and the cell density in the plate was 0.5×10^6/2004/well. Culture Media: RPMI 1640 with 1% FBS or 30% FBS for high serum assay. Test Compound: Serial dilution was done in 100% DMSO, and intermediate dilution was done with RPMI 1640 medium with 1% FBS. The DMSO final concentration in culture well was 0.25%. Stimulant: PHA (Sigma#L9017-10MG) was used for the assay with 1% FBS in culture medium, and added after 10 minutes exposure of cell to compound/DMSO. The PHA final concentration in culture well was 5 μg/mL. PMA (Sigma# P-8139 5MG)/Ionomycin (Sigma# I0634-5MG) was used for the assay with 30% FBS in culture medium, and added at same time point as the 1% FBS culture assay. The final concentration of PMA was 50 ng/mL, and Ionomycin final concentration was 500 ng/mL. Incubation: At 37° C. with 5% CO2 and 95% humidity for 18 h˜20 h. IC50: IC50 was calculated with the data analysis software XLfit4, General Pharmacology model 251.

The subject of another assay is PBMC from healthy donors. The assay is described as follows: [3H]Thymidine Incorporation (MLR). The note with it: mixed PBMC responder/stimulator 1:1, 4 days. Here is the method:
[3H]Thymidine Incorporation (MLR)
Freshly isolated PBMC from healthy donors were either used as responders, where the cells were pre-treated with various concentrations of inhibitors (as indicated in the figure legends), or stimulators where the cells were pre-treated with 0.05 mg/ml Mitomycin C for 20 min. Stimulator cells were washed twice with RPMI 1640 and mixed with responder PBMCs at a 1:1 ratio, totaling 2×10^5 cells/well in quadruplicate in a 96-well U-bottom tissue culture plates (Falcon). Cells were cultured in complete RPMI 1640 (supplemented with 10% FBS, 1 mM sodium pyruvate, and 100 IU/ml penicillin-streptomycin, 0.01M HEPES and 55 μM β-ME [Invitrogen]) for 4 days at 37° C. in 5% CO2. Cultures were pulsed with 0.5 μCi [3H]-thymidine (PerkinElmer) during the last 6 hrs of culture. Cells were harvested on filter plates using a 96-well plate harvester (PerkinElmer), and the incorporation of [3H]-thymidine was measured as cpm in a Topcount Microplate scintillation counter (PerkinElmer). Stimulator cells alone or responder cells alone were set up in parallel as controls.
(In general: Incorporation of labelled thymidine or its analogues reports DNA synthesis.)

Assay [2] has as its system T cell IL-2 production in human whole blood. The assay is described as follows: Human Whole Blood Assay (inhibition of T cell IL-2 production). The note with it: T-cell, 10 μM Thapsigargin overnight, plasma IL-2 by AlphaLISA, read-out: HWB. As for the experimental part: Inhibition of T cell IL-2 production CRAC compounds were tested in human whole blood from normal donors. 200 μl of human whole blood was aliquoted into each well of a round bottom 96 well plate. Concentration-response curves were generated for test compounds and CsA (as controls) by performing serial dilutions of the compounds and incubating each concentration in a single well for 30 min (experiment was performed in triplicate). Following incubation, the blood was stimulated with 10 μM Thapsigargin (SIGMA) overnight at 37° C. IL-2 concentrations in the plasma were determined by AlphaLISA IL-2 assay (Perkin Elmer). Data analysis was performed using GraphPad PRISMS.
A general note: In Alpha technology, singlet oxygen from a donor bead excites a nearby acceptor bead.

Structures are written as SMILES.

Turning to `Cc1sc(-c2cccnc2)nc1-c1ccc2c(c1)OCC(c1c(F)cccc1F)N2` (stereo not shown) [Example 12, 3-(2,6-Difluoro-phenyl)-7-(5-methyl-2-pyridin-3-yl-thiazol-4-yl)-3,4-dihydro-2H-benzo[1,4]oxazine], the IC50 in assay [1] is 30 nM; with PBMC from healthy donors, 190 nM; in assay [2], 430 nM.

Consider `CCn1nc(C(F)(F)F)cc1-c1ccc2c(c1)OCC(c1c(F)cccc1F)N2` (stereo not shown) [Example 6, 3-(2,6-Difluoro-phenyl)-7-(2-ethyl-5-trifluoromethyl-2H-pyrazol-3-yl)-3,4-dihydro-2H-benzo[1,4]oxazine], for which the values for the IC50 (in assay [1]; with PBMC from healthy donors; in assay [2]) were 20 nM, 110 nM and 510 nM, respectively.

On to `CCc1sc(-c2cc(C)on2)nc1-c1ccc2c(c1)OCC(c1c(F)cccc1F)N2` (stereo not shown) [Example 20, 3-(2,6-difluorophenyl)-7-(5-ethyl-2-(5-methylisoxazol-3-yl)thiazol-4-yl)-3,4-dihydro-2H-benzo[b][1,4]oxazine], for which the IC50 in assay [1] stood at 30 nM; in the assay with PBMC from healthy donors, 430 nM; in assay [2] it was 360 nM.

Turning to `CCc1sc(-c2cccnc2)nc1-c1ccc2c(c1)OCC(c1c(F)cccc1F)N2` (stereo not shown) [Example 14, 3-(2,6-Difluoro-phenyl)-7-(5-ethyl-2-pyridin-3-yl-thiazol-4-yl)-3,4-dihydro-2H-benzo[1,4]oxazine], the IC50 was found to be 30 nM in assay [1], 100 nM in the assay on PBMC from healthy donors and 520 nM in assay [2].

`CCn1nc(-c2cccnc2)cc1-c1ccc2c(c1)OCC(c1c(F)cccc1F)N2` (stereo not shown) [Example 7, 3-(2,6-Difluoro-phenyl)-7-(2-ethyl-5-pyridin-3-yl-2H-pyrazol-3-yl)-3,4-dihydro-2H benzo[1,4]oxazine]: the IC50 turned out to be 70 nM in assay [1], 330 nM with PBMC from healthy donors and 320 nM in assay [2].

For `CCc1sc(-c2cnccn2)nc1-c1ccc2c(c1)OCC(c1c(F)cccc1F)N2` (stereo not shown) [Example 16, 3-(2,6-difluorophenyl)-7-(5-ethyl-2-(pyrazin-2-yl)thiazol-4-yl)-3,4-dihydro-2H-benzo[b][1,4]oxazine], the IC50 turned out to be 20 nM in assay [1], 180 nM in the assay with PBMC from healthy donors and 870 nM in assay [2].

With `CCc1sc(-c2ccncc2)nc1-c1ccc2c(c1)OCC(c1c(F)cccc1F)N2` (stereo not shown) [Example 17, 3-(2,6-Difluoro-phenyl)-7-(5-ethyl-2-pyridin-4-yl-thiazol-4-yl)-3,4-dihydro-2H-benzo[1,4]oxazine], the IC50 in assay [1] turned out to be 20 nM; in the assay with PBMC from healthy donors, 440 nM; in assay [2], 320 nM.

`Cc1cc(C(F)(F)F)ccc1-c1ccc2c(c1)OCC(c1c(F)cccc1Cl)N2` (stereo not shown) [Example 29, 3-(2-Chloro-6-fluoro-phenyl)-7-(2-methyl-4-trifluoromethyl-phenyl)-3,4-dihydro-2H-benzo[1,4]oxazine]: the IC50 came out at 160 nM in assay [1] and 5330 nM in assay [2].

With `Cc1sc(-c2cccnc2)nc1-c1ccc2c(c1)OCC(c1c(F)cccc1Cl)N2` (stereo not shown) [Example 32, 3-(2-Chloro-6-fluoro-phenyl)-7-(5-methyl-2-pyridin-3-yl-thiazol-4-yl)-3,4-dihydro-2H-benzo[1,4]oxazine], the IC50 is 50 nM in assay [1] and 580 nM in assay [2].

These data come from patent US20130090333A1, “BENZOXAZINE DERIVATIVES AS CRAC MODULATORS” (Hoffmann-La Roche Inc., priority 2011, published 2013).
